Patent US20230123334A1, “AMINO LIPID COMPOUND, PREPARATION METHOD THEREFOR, AND APPLICATION THEREOF” (SHENZHEN SHENXIN BIOTECHNOLOGY CO., LTD., priority 2020, published 2023)

tested on: MCF7 cells; assay: Transfection of MCF7 cell line, mRNA vectors; type: cell-based; details: 50 ng EGFP mRNA per well
Method in brief: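 Efficiency was scored as the fraction of GFP-fluorescent cells over all Hoechst-counted cells after delivery of 50 ng EGFP mRNA per well. Cells were MCF7 grown in serum-supplemented DMEM, and Lipofectamine2000 served as reference.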

SMILES	Absolute mRNA transfection efficiency in MCF7 cells
CCCCCCCCCCCCCCCSc1nc(NCCN2CCCC2)nc(SCCCCCCCCC)n1 [Compound S9S15D3]	1.1%
CCCCCCCCCCCCCCCSc1nc(NCCN2CCN(C)CC2)nc(SCCCCCCCCC)n1 [Compound S9S15D5]	27.0%
CCCCCCCCCCCCCCCSc1nc(NCCCN(C)C)nc(SCCCCCCCCC)n1 [Compound S9S15D6]	47.3%
CCCCCCCCCCCCCCCSc1nc(NCCCN2CCOCC2)nc(SCCCCCCCCC)n1 [Compound S9S15D8]	13.5%
CCCCCCCCCCCCCCCSc1nc(NCCCN2CCN(C)CC2)nc(SCCCCCCCCC)n1 [Compound S9S15D9]	27.6%

tested on: HEK293 cells; assay: Preliminary screening as mRNA vectors, EGFP mRNA transfection of HEK293 cells; type: cell-based; details: HEK293 cells, 96-well plates, EGFP mRNA 50 ng per well; percentage of GFP fluorescent cells relative to total number of cells (Hoechst)
Method in brief: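 Each well of HEK293 cells received 50 ng of EGFP mRNA. Efficiency was expressed as percent GFP-expressing cells over Hoechst-defined total cell number.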

SMILES	Absolute mRNA transfection efficiency in HEK293 cells
CCCCCCCCCCCCCCCSc1nc(NCCN2CCCC2)nc(SCCCCCCCCC)n1 [Compound S9S15D3]	2.5%
CCCCCCCCCCCCCCCSc1nc(NCCN2CCN(C)CC2)nc(SCCCCCCCCC)n1 [Compound S9S15D5]	41.3%
CCCCCCCCCCCCCCCSc1nc(NCCCN(C)C)nc(SCCCCCCCCC)n1 [Compound S9S15D6]	87.2%
CCCCCCCCCCCCCCCSc1nc(NCCCN2CCOCC2)nc(SCCCCCCCCC)n1 [Compound S9S15D8]	5.4%
CCCCCCCCCCCCCCCSc1nc(NCCCN2CCN(C)CC2)nc(SCCCCCCCCC)n1 [Compound S9S15D9]	40.4%

tested on: Hela cells; assay: Transfection of Hela cell line, DNA vectors; type: cell-based; details: 75 ng plasmid DNA, GFP cells / total cells
Method in brief: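 Amino lipid/DOPE liposomes in sodium acetate pH 5.6 were complexed with 75 ng psin-EGFP-IRES-Puro plasmid for 30 min at room temperature, then mixed with 3-5×10^4 Hela cells in DMEM/10% FBS at 37° C. Hoechst stain after 20-24 h, imaging after a further 20-24 h. Efficiency = GFP-positive cells / total nuclei.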

SMILES	Absolute DNA transfection efficiency in Hela cells
CCCCCCCCCCCCCCCSc1nc(NCCN2CCCC2)nc(SCCCCCCCCC)n1 [Compound S9S15D3]	1.4%
CCCCCCCCCCCCCCCSc1nc(NCCN2CCN(C)CC2)nc(SCCCCCCCCC)n1 [Compound S9S15D5]	4.4%
CCCCCCCCCCCCCCCSc1nc(NCCCN(C)C)nc(SCCCCCCCCC)n1 [Compound S9S15D6]	23.7%
CCCCCCCCCCCCCCCSc1nc(NCCCN2CCOCC2)nc(SCCCCCCCCC)n1 [Compound S9S15D8]	11.1%
CCCCCCCCCCCCCCCSc1nc(NCCCN2CCN(C)CC2)nc(SCCCCCCCCC)n1 [Compound S9S15D9]	12.6%

tested on: Hela cells; assay: Transfection of Hela cell line, mRNA vectors; type: cell-based; details: 50 ng EGFP mRNA per well
Method in brief: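 Transfection efficiency was scored as GFP-fluorescent cells over Hoechst-stained total nuclei, with Lipofectamine2000 as reference reagent. Each well of HeLa cells, grown in DMEM plus 10% FBS, received 50 ng EGFP mRNA.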

SMILES	Absolute mRNA transfection efficiency in Hela cells
CCCCCCCCCCCCCCCSc1nc(NCCN2CCCC2)nc(SCCCCCCCCC)n1 [Compound S9S15D3]	1.4%
CCCCCCCCCCCCCCCSc1nc(NCCN2CCN(C)CC2)nc(SCCCCCCCCC)n1 [Compound S9S15D5]	4.4%
CCCCCCCCCCCCCCCSc1nc(NCCCN(C)C)nc(SCCCCCCCCC)n1 [Compound S9S15D6]	23.7%
CCCCCCCCCCCCCCCSc1nc(NCCCN2CCOCC2)nc(SCCCCCCCCC)n1 [Compound S9S15D8]	11.1%
CCCCCCCCCCCCCCCSc1nc(NCCCN2CCN(C)CC2)nc(SCCCCCCCCC)n1 [Compound S9S15D9]	12.6%

tested on: HEK293 cells; assay: Preliminary screening as DNA vectors, GFP transfection of HEK293 cells; type: cell-based; details: HEK293 cells; lipid/DOPE liposome with 75 ng plasmid DNA (psin-EGFP-IRES-Puro); number of cells expressing GFP divided by total number of nuclei (Hoechst)
Method in brief: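 Lipid + DOPE liposomes (NaOAc, pH 5.6) complexed w/ 75 ng psin-EGFP-IRES-Puro, 30 min RT; added to 3-5×10^4 HEK293/well, 37° C. Hoechst 0.2 μg/mL at 20-24 h, imaged after further 20-24 h. Efficiency = GFP+ cells / total nuclei.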

SMILES	Absolute DNA transfection efficiency in HEK293 cells
CCCCCCCCCCCCCCCSc1nc(NCCN2CCCC2)nc(SCCCCCCCCC)n1 [Compound S9S15D3]	2.5%
CCCCCCCCCCCCCCCSc1nc(NCCN2CCN(C)CC2)nc(SCCCCCCCCC)n1 [Compound S9S15D5]	8.9%
CCCCCCCCCCCCCCCSc1nc(NCCCN(C)C)nc(SCCCCCCCCC)n1 [Compound S9S15D6]	47.4%
CCCCCCCCCCCCCCCSc1nc(NCCCN2CCOCC2)nc(SCCCCCCCCC)n1 [Compound S9S15D8]	22.2%
CCCCCCCCCCCCCCCSc1nc(NCCCN2CCN(C)CC2)nc(SCCCCCCCCC)n1 [Compound S9S15D9]	25.3%

tested on: cardiomyocytes; assay: Screening as DNA vectors in cardiomyocytes; type: cell-based; design: concentration or dose not given beside the values; details: method as Example 4
Method in brief: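 hESC-derived cardiomyocytes in DMEM with 10% FBS were transfected with a GFP DNA vector; Lipofectamine Stem served as positive control. Read-out: percentage of GFP-positive cells relative to total cells counted by Hoechst nuclear stain.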

SMILES	Absolute DNA transfection efficiency in cardiomyocytes
CCCCCCCCCCCCCCCSc1nc(NCCN2CCCC2)nc(SCCCCCCCCC)n1 [Compound S9S15D3]	0.3%
CCCCCCCCCCCCCCCSc1nc(NCCN2CCN(C)CC2)nc(SCCCCCCCCC)n1 [Compound S9S15D5]	12.8%
CCCCCCCCCCCCCCCSc1nc(NCCCN(C)C)nc(SCCCCCCCCC)n1 [Compound S9S15D6]	6.9%
CCCCCCCCCCCCCCCSc1nc(NCCCN2CCOCC2)nc(SCCCCCCCCC)n1 [Compound S9S15D8]	2.0%
CCCCCCCCCCCCCCCSc1nc(NCCCN2CCN(C)CC2)nc(SCCCCCCCCC)n1 [Compound S9S15D9]	1.3%

tested on: embryonic stem cells (hESC2); assay: Screening as mRNA vectors in embryonic stem cells; type: cell-based; details: 50 ng EGFP mRNA per well
Method in brief: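 EGFP mRNA (50 ng per well) transfected into hESC2 cells grown in mTeSR1; Lipofectamine Stem served as positive control. Read-out: GFP-fluorescent cells as percentage of total cells.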

SMILES	Absolute mRNA transfection efficiency in embryonic stem cells
CCCCCCCCCCCCCCCSc1nc(NCCN2CCCC2)nc(SCCCCCCCCC)n1 [Compound S9S15D3]	9.2%
CCCCCCCCCCCCCCCSc1nc(NCCN2CCN(C)CC2)nc(SCCCCCCCCC)n1 [Compound S9S15D5]	33.4%
CCCCCCCCCCCCCCCSc1nc(NCCCN(C)C)nc(SCCCCCCCCC)n1 [Compound S9S15D6]	2.5%
CCCCCCCCCCCCCCCSc1nc(NCCCN2CCOCC2)nc(SCCCCCCCCC)n1 [Compound S9S15D8]	0.4%
CCCCCCCCCCCCCCCSc1nc(NCCCN2CCN(C)CC2)nc(SCCCCCCCCC)n1 [Compound S9S15D9]	13.3%

tested on: embryonic stem cells (hESC2); assay: Screening as DNA vectors in embryonic stem cells, flow cytometry; type: cell-based; details: 75 ng plasmid DNA, 48 hours after transfection, flow cytometer
Method in brief: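 hESC2 cells in mTeSR1 on matrigel transfected with 75 ng pSin-EGFP-IRES-Puro complexed with amino lipid/DOPE liposomes formed in sodium acetate pH 5.6; 37 °C, 5% CO2. After 48 h, GFP-positive cells counted by flow cytometry (≥2000 cells), efficiency also expressed relative to Lipofectamine Stem.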

SMILES	Absolute DNA transfection efficiency in embryonic stem cells
CCCCCCCCCCCCCCCSc1nc(NCCN2CCCC2)nc(SCCCCCCCCC)n1 [Compound S9S15D3]	1.8%
CCCCCCCCCCCCCCCSc1nc(NCCN2CCN(C)CC2)nc(SCCCCCCCCC)n1 [Compound S9S15D5]	6.2%
CCCCCCCCCCCCCCCSc1nc(NCCCN(C)C)nc(SCCCCCCCCC)n1 [Compound S9S15D6]	3.7%
CCCCCCCCCCCCCCCSc1nc(NCCCN2CCOCC2)nc(SCCCCCCCCC)n1 [Compound S9S15D8]	1.9%
CCCCCCCCCCCCCCCSc1nc(NCCCN2CCN(C)CC2)nc(SCCCCCCCCC)n1 [Compound S9S15D9]	21.6%

tested on: MCF7 cells; assay: Transfection of MCF7 cell line, DNA vectors; type: cell-based; design: concentration or dose not given beside the values; details: plasmid DNA, GFP cells / total cells
Method in brief: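 Read-out: GFP-positive cells as % of all Hoechst-stained nuclei after 96-well transfection of MCF7 cells grown in serum-supplemented DMEM. Positive control was Lipofectamine2000, used per manufacturer's protocol.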

SMILES	Absolute DNA transfection efficiency in MCF7 cells
CCCCCCCCCCCCCCCSc1nc(NCCN2CCCC2)nc(SCCCCCCCCC)n1 [Compound S9S15D3]	1.4%
CCCCCCCCCCCCCCCSc1nc(NCCN2CCN(C)CC2)nc(SCCCCCCCCC)n1 [Compound S9S15D5]	23.0%
CCCCCCCCCCCCCCCSc1nc(NCCCN(C)C)nc(SCCCCCCCCC)n1 [Compound S9S15D6]	48.4%
CCCCCCCCCCCCCCCSc1nc(NCCCN2CCOCC2)nc(SCCCCCCCCC)n1 [Compound S9S15D8]	3.0%
CCCCCCCCCCCCCCCSc1nc(NCCCN2CCN(C)CC2)nc(SCCCCCCCCC)n1 [Compound S9S15D9]	22.5%

tested on: cardiomyocytes; assay: Screening as mRNA vectors in cardiomyocytes; type: cell-based; details: 50 ng EGFP mRNA per well
Method in brief: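 Cardiomyocytes differentiated from hESC, in DMEM with 10% FBS, were transfected with 50 ng EGFP mRNA per well. The read-out was GFP-positive cells as a percentage of Hoechst-stained nuclei, with Lipofectamine Stem as positive control.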

SMILES	Absolute mRNA transfection efficiency in cardiomyocytes
CCCCCCCCCCCCCCCSc1nc(NCCN2CCCC2)nc(SCCCCCCCCC)n1 [Compound S9S15D3]	6.6%
CCCCCCCCCCCCCCCSc1nc(NCCN2CCN(C)CC2)nc(SCCCCCCCCC)n1 [Compound S9S15D5]	1.9%
CCCCCCCCCCCCCCCSc1nc(NCCCN(C)C)nc(SCCCCCCCCC)n1 [Compound S9S15D6]	12.9%
CCCCCCCCCCCCCCCSc1nc(NCCCN2CCOCC2)nc(SCCCCCCCCC)n1 [Compound S9S15D8]	0.6%
CCCCCCCCCCCCCCCSc1nc(NCCCN2CCN(C)CC2)nc(SCCCCCCCCC)n1 [Compound S9S15D9]	7.1%
